What was measured:
[1] = system: HIV-1 pNL4-3 WT; test: Late-stage single replication cycle antiviral assay, WT virus; type: cell-based; details: Human immunodeficiency virus 1, TZM-bl, read-out: WT-IC50 (antiviral activity)
[2] = system: HIV-1 pNL4-3 A128T IN mutant; test: Late-stage single replication cycle antiviral assay, A128T IN mutant virus; type: cell-based; details: Human immunodeficiency virus 1, TZM-bl, read-out: A128T-IC50 (antiviral activity)

Row | SMILES | IC50 [1] [nM] | IC50 [2] [nM]
1 | Cc1nc2ccccc2c(-c2ccc3c(c2)OCCO3)c1C(OC(C)(C)C)C(=O)O (stereo not drawn) [Compound 2] | 700 ± 100 | 1100 ± 200
2 | Cc1nc2c(Br)cccc2c(-c2ccc3c(c2)OCCO3)c1C(OC(C)(C)C)C(=O)O (stereo not drawn) [Compound 16ba] | 600 ± 100 | 300 ± 100
3 | Cc1nc2ccc(Br)cc2c(-c2ccc3c(c2)OCCO3)c1C(OC(C)(C)C)C(=O)O (stereo not drawn) [Compound 17] | 300 ± 100 | 10200 ± 2500

Source: publication PMC9324412 (Viruses, 2022)
